# Data as given in US20260183295A1, “METHODS AND COMPOSITIONS FOR TREATING CANCER” (Onconova Therapeutics, Inc., priority 2022, published 2026).
# Tests used:
# HCC-1937 [1] = test: MTT cell viability, 48 hours; type: cell-based; conditions: Homo sapiens, HCC1937, 48 h, HCC-1937 (TNBC), read-out: 48 h-cell viability decrease
# Procedure: (§1) A panel of […] breast cancer cell lines: T-47D, BT-474, MDA-MB-453, MDA-MB-468, HCC-1937, Hs578T, and MDA-MB-231, was treated for 48 hours with 5 μM Compound 1 and the cell viability was measured using the MTT assay. TABLE 6 summarizes the cell lines, and the change in viability after 48 hours of treatment with Compound 1.
# BT-474 = test: MTT cell viability, 48 hours; type: cell-based; conditions: Homo sapiens, BT-474 (HR+ HER2+), read-out: 48 h-cell viability decrease
# Procedure: as §1
# T-47D = test: MTT cell viability, 48 hours; type: cell-based; conditions: Homo sapiens, T47D, T-47D (HR+ HER2−), read-out: 48 h-cell viability decrease
# Procedure: as §1
# MDA-MB-453 = test: MTT cell viability, 48 hours; type: cell-based; conditions: Homo sapiens, MDA-MB-453 (TNBC), read-out: 48 h-cell viability decrease
# Procedure: as §1
# MDA-MB-231 [2] = test: MTT cell viability, 48 hours; type: cell-based; conditions: Homo sapiens, MDA-MB-231 (TNBC), read-out: 48 h-cell viability decrease
# Procedure: as §1
# MDA-MB-468 [3] = test: MTT cell viability, 48 hours; type: cell-based; conditions: Homo sapiens, MDA-MB-468 (TNBC), read-out: 48 h-cell viability decrease
# Procedure: as §1
# Hs578T = test: MTT cell viability, 48 hours; type: cell-based; conditions: Homo sapiens, Hs-578T, Hs578T (TNBC), read-out: 48 h-cell viability decrease
# Procedure: as §1
# CPQ = target: T1, CPQ (Homo sapiens, UniProt Q9Y646); test: CETSA-MS, MDA-MB-231 cell lysates; type: binding; conditions: 2 μM and 20 μM
# T1 construct: endogenous in cells; host or cells: MDA-MB-231
# T1 sequence (Q9Y646 45-472): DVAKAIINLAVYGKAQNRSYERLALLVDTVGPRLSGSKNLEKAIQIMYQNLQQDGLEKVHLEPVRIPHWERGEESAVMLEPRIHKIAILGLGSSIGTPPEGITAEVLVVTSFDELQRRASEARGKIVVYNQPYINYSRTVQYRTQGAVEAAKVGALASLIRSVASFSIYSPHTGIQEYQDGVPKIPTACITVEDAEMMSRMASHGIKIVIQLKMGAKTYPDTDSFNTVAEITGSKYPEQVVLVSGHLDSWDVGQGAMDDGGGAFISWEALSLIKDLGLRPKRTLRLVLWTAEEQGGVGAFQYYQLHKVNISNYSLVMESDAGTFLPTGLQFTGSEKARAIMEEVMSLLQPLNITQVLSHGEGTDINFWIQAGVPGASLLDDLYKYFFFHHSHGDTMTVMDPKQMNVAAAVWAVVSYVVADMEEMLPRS
# Procedure: (§2) Following treatment, cell lysates were thermally treated in a thermal gradient profile across a temperature range. Following the thermal shift, cell lysates were spun by centrifuge to pellet aggregate protein and the supernatant withdrawn. The supernatant was then denatured in buffer and heated to denature, reduce, and alkylate the supernatant proteins. Following heating and cooling to room temperature, cold acetone was added to the supernatant samples and proteins precipitated.
# (§3) The intact cell protein samples and lysate protein samples were then digested and labeled for mass spectrometry analysis according to the manufacturer's recommended protocols. Digested and labeled protein samples were analyzed by mass spectrometry proteomic analysis and the resulting protein targets were analyzed and plotted.
# CDC42BPB = target: T2, CDC42BPB (Homo sapiens, UniProt Q9Y5S2); test: CETSA-MS, MDA-MB-231 cell lysates; type: binding; conditions: 2 μM and 20 μM
# T2 construct: endogenous in cells; host or cells: MDA-MB-231
# T2 sequence (Q9Y5S2 whole entry): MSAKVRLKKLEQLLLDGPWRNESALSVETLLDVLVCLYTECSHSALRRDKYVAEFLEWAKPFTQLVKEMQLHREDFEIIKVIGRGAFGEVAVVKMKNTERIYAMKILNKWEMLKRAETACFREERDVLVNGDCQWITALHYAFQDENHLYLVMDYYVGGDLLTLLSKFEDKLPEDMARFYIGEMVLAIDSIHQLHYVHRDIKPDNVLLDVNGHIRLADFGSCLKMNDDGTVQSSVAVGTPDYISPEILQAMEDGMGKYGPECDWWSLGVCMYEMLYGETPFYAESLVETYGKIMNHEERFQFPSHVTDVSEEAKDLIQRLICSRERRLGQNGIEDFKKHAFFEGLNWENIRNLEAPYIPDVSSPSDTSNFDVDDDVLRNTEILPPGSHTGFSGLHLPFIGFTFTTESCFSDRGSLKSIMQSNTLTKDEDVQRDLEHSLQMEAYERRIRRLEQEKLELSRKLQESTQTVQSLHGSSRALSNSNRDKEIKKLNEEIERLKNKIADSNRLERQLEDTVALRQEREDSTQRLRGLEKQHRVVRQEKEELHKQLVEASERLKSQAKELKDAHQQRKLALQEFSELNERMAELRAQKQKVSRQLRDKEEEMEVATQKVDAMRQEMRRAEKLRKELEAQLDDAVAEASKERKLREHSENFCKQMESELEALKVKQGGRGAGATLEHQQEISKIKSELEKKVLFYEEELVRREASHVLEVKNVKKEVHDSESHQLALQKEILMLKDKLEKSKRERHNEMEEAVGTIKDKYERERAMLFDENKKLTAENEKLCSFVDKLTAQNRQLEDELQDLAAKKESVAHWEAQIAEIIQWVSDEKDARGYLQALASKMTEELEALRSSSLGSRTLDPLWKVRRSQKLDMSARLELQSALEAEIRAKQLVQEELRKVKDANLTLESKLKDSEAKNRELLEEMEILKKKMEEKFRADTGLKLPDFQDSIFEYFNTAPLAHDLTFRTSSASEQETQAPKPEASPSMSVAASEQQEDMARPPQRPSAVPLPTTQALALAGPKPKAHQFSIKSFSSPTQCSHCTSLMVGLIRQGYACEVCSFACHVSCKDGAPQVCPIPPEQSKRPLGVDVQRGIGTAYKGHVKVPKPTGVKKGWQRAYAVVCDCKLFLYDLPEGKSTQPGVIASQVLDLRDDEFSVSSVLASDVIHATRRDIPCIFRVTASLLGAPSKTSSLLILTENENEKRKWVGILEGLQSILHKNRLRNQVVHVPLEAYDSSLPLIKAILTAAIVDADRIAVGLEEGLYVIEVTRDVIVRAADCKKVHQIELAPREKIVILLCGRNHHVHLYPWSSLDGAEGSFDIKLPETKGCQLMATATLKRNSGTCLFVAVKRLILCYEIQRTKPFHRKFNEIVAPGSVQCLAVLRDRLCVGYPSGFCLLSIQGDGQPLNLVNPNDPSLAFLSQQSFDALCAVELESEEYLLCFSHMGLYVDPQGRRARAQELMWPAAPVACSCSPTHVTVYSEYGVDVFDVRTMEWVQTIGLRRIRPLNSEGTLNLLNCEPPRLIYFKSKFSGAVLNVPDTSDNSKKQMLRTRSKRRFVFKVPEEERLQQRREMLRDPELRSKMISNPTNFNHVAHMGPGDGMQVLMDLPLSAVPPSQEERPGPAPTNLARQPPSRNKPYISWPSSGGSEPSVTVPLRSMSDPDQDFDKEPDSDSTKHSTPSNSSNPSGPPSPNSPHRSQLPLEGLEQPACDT
# Procedure: as §2, §3
# TBK1 = target: T3, TBK1 (Homo sapiens, UniProt Q9UHD2); test: CETSA-MS, MDA-MB-231 cell lysates; type: binding; conditions: 2 μM and 20 μM
# T3 construct: endogenous in cells; host or cells: MDA-MB-231
# T3 sequence (Q9UHD2 whole entry): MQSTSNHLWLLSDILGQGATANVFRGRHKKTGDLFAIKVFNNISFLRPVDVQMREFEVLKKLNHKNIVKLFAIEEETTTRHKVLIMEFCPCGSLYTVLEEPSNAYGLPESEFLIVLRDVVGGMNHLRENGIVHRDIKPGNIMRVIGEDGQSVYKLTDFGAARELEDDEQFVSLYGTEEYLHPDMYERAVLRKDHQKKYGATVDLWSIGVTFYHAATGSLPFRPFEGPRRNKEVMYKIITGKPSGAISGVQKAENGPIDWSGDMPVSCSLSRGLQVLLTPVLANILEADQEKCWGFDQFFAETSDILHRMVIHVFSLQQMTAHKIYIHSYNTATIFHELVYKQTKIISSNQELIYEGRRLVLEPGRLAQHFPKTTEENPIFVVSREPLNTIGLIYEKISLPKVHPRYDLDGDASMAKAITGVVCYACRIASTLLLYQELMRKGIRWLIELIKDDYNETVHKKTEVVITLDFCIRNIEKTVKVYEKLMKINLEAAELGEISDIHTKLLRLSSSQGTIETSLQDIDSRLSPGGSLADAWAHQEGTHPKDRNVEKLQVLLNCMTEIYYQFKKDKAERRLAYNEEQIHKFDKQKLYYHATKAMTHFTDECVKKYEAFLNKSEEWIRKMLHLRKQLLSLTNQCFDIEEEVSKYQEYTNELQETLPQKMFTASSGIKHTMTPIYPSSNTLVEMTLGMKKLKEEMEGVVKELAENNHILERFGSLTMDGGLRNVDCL
# Procedure: as §2, §3
# ZNF260 = target: T4, ZNF260 (Homo sapiens, UniProt Q3ZCT1); test: CETSA-MS, MDA-MB-231 cell lysates; type: binding; conditions: 2 μM and 20 μM
# T4 construct: endogenous in cells; host or cells: MDA-MB-231
# T4 sequence (Q3ZCT1 whole entry): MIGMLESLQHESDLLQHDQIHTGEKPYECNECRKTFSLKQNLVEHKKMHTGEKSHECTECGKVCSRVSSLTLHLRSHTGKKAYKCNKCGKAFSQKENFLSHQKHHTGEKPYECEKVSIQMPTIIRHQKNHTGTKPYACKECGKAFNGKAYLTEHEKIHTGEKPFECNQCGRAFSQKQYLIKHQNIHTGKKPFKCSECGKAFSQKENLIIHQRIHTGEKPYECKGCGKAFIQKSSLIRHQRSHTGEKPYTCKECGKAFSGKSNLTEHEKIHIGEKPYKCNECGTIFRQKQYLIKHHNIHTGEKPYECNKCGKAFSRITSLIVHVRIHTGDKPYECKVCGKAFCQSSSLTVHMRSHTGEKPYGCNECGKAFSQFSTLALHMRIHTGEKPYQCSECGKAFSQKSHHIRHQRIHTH
# Procedure: as §2, §3
# MDA-MB-231 cells [4] = test: Transmission electron microscopy of cellular morphology; type: cell-based; conditions: 5 μM, 24 hours, compared to DMSO
# Procedure: The effect of Compound 1 (5 μM) treatment for 24 hours on cellular morphology was assessed using transmission electron microscopy (TEM) and compared to DMSO. FIG. 27 and FIG. 28 show representative TEM images of MDA-MB-231 cells treated with DMSO or Compound 1.
# CDK4/cyclin D1 = CDK4/cyclin D1 (Homo sapiens, UniProt P11802); test: CDK4/cyclin D1 CETSA; type: cell-based; parameters: endogenous in cells; host or cells: MDA-MB-231 (lysates and intact cells)
# CDK4/cyclin D1, sequence (P11802 whole entry): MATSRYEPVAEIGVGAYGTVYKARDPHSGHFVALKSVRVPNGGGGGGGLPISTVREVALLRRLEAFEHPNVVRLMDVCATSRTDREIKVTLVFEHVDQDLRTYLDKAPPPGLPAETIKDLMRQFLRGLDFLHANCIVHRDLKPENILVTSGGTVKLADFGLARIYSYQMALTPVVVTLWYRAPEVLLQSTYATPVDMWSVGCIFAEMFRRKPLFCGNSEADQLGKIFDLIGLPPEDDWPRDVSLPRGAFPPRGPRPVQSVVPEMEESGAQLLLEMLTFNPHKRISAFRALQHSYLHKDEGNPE
# Procedure: as §2
# TNBC MDA-MB-231 cells were grown at 37° C. in 5% CO2 and suspended in warm media and split into 4 equal volumes. […] Cells were incubated and then pelleted. Following pelleting, the cells were washed, resuspended, and heated in a thermal gradient. Following heating, the samples were flash frozen and lysed in lysis buffer, agitated by vortex, and sonicated prior to centrifugation. The supernatant was collected and denaturation buffer added. Cold acetone was then added to the cell samples, and protein collected by centrifugation. […]
# as §3
# HCC-1937 [5] = test: Cell viability after 72 hours treatment; type: cell-based; conditions: HCC-1937 (TNBC)
# Procedure: (§4) The effects on the different treatment conditions on BUB 1 levels and PARP cleavage were also assessed. For both MNA-MB-231 cells, Compound 1 alone or with HCQ or SBI decreased BUB1 levels and cleaved PARP with […] decreases in cell viability observed for all treatments except Compound 1+SBI in MMA-MB-231 cells. The effects of Compound 1 with or without autophagy inhibitors was less pronounced in HCC-1937 cells.
# MDA-MB-231 [6] = test: Cell viability after 72 hours treatment; type: cell-based; conditions: MDA-MB-231 (TNBC)
# Procedure: as §4
# MDA-MB-468 [7] = test: Cell viability after 72 hours treatment; type: cell-based; conditions: MDA-MB-468 (TNBC)
# Procedure: as §4
# pRb pSer807/811 = test: Western blot after 2 h treatment, MDA-MB-231; type: cell-based; conditions: 5 μM, relative to DMSO control
# Procedure: (§5) Following treatment, a sample of each of the three treatments was analyzed by Western Blot for expression of phosphoprotein targets.
# pRb = test: Western blot after 2 h treatment, MDA-MB-231; type: cell-based; conditions: 5 μM, relative to DMSO control
# Procedure: as §5
# Akt pSer473 = test: Western blot, MDA-MB-231 cells, 24 hours; type: cell-based; conditions: 2.5, 5, 10 μM, versus Comparator 1, 2 and 4
# BUB1 in MDA-MB-231 = test: BUB1 levels after 72 hours treatment; type: cell-based; conditions: MDA-MB-231 (TNBC)
# Procedure: as §4
# BUB1 in MDA-MB-468 = test: BUB1 levels after 72 hours treatment; type: cell-based; conditions: MDA-MB-468 (TNBC)
# Procedure: as §4
# MDA-MB-231 cells [8] = test: CytoTox-Glo cytotoxicity assay with or without bafilomycin A1, 2 days; type: cell-based; conditions: 5 μM
# PyMT cells = test: Senescence-associated β-galactosidase staining, 48 hours; type: cell-based, mouse; conditions: compared to DMSO
# Procedure: Following 48 hours of treatment, cells were stained for the senescence marker β-galactosidase.
# CXCL10 = test: qPCR of T-cell recruiting chemokine mRNA, PyMT cells; type: cell-based, mouse
smiles,measurement,setting,value
"CN1CCN(c2ccc(Nc3ncc4cc(C#N)c(=O)n(C5CCCC5)c4n3)cc2)CC1 [Compound 1, 8-cyclopentyl-2-((4-(4-methylpiperazin-1-yl)phenyl)amino)-7-oxo-7,8-dihydropyrido[2,3-d]pyrimidine-6-carbonitrile]",cytotoxicity at 5 µM,HCC-1937 [1],20%
same,cytotoxicity at 5 µM,BT-474,50%
same,cytotoxicity at 5 µM,T-47D,60%
same,cytotoxicity at 5 µM,MDA-MB-453,50%
same,cytotoxicity at 5 µM,MDA-MB-231 [2],60%
same,cytotoxicity at 5 µM,MDA-MB-468 [3],65%
same,cytotoxicity at 5 µM,Hs578T,40%
same,Group (CETSA-MS thermal shift),CPQ,Stabilization
same,Group (CETSA-MS thermal shift),CDC42BPB,Destabilization
same,Group (CETSA-MS thermal shift),TBK1,Destabilization
same,Group (CETSA-MS thermal shift),ZNF260,Destabilization
same,cellular morphology (TEM),MDA-MB-231 cells [4],extensive vacuolization
same,CETSA,CDK4/cyclin D1,POS
same,72 h-cell viability decrease,HCC-1937 [5],25%
same,72 h-cell viability decrease,MDA-MB-231 [6],75%
same,72 h-cell viability decrease,MDA-MB-468 [7],80%
same,phosphorylation of pRb at Ser807/811,pRb pSer807/811,decreased phosphorylation
same,pRb levels,pRb,decreased pRb levels
same,Akt pSer473 levels,Akt pSer473,decreasing
same,BUB1,BUB1 in MDA-MB-231,↓
same,BUB1,BUB1 in MDA-MB-468,↓
same,"cell death (Cell Tox Glo), compound alone",MDA-MB-231 cells [8],induced cell death
same,effect of bafilomycin A1 cotreatment on cell death (Cell Tox Glo),MDA-MB-231 cells [8],enhanced
same,β-galactosidase staining (senescence),PyMT cells,increased β-galactosidase staining
same,time of peak CXCL10 mRNA levels,CXCL10,~48 h
same,CXCL10 mRNA levels,"CXCL10; 24, 48 and 72 hours",large increase
